Test results reported in US20160051665A1, “INDUCTION OF IMMUNE RESPONSE” (priority 2010, published 2016).

Assays:
[1] = tested on: HBV-containing HepG2.2.15 cells; assay: interferon-γ ELISpot: peptide-primed CTLs against BuCas-treated target cells; assay type: cell-based, human; conditions: BuCas 1 mg/ml twice at 3 day interval, FIG. 2B
Experimental: Heparinized blood from healthy HLA-A2 donors was purchased from Research Blood Components, LLC, (Brighton, Mass.). Peripheral blood mononuclear cells were purified and cultured as described (13, 21). After initial stimulation with synthetic peptide, T cells were re-stimulated with CD4/CD8 T cell depleted autologous monocytes pulsed with synthetic peptide at 10 μg/ml for 5 days. IL-2 treatment and in vitro re-stimulation were repeated thrice prior to use of in vitro expanded T cells in ELISpot assays.
In vitro expanded CTLs were used as effectors in ELISpot assays to assess antigen stimulated interferon-γ release according to the manufacturer's instructions (BD-Pharmingen, San Jose, Calif.). Target cells were HepG2 human hepatoma cells (HBV negative; American Type Culture Collection) or HBV-containing HepG2.2.15 cells (22). […]
Peptides presented on the surface of a cell in the context of the MHC class I complex should be recognized with high sensitivity upon incubation with cognate peptide-primed CTLs, with specific killing of the target cells. […] Target cell recognition was quantified by interferon-γ ELISpot assay.
The ability of in vitro generated CTLs to recognize and secrete interferon-γ was evaluated by ELISpot assay. […] The P value was calculated from a Student's t-Test analysis of experimental results.

[2] = tested on: WHV surface antigen (WHsAg); assay: serum WHsAg enzyme immunoassay in chronic WHV carrier woodchucks; assay type: in vivo, woodchuck; conditions: for WHsAg, Av(range): serum
Experimental: All experimental procedures involving woodchucks were performed under protocols approved by the Cornell University Institutional Animal Care and Use Committee. Woodchucks were born to WHV-negative females in environmentally controlled laboratory animal facilities and inoculated at 3 days of age with 5 million infectious doses of a standardized WHV inoculum (23). Woodchucks were selected as chronic WHV carriers based on persistent detection of WHV surface antigen (WHsAg) and WHV DNA in serum prior to treatments. All animals were free of HCC at the beginning of the study as determined by hepatic ultrasound examination and normal serum activity of γ-glutamyl-transferase (GGT).
Twenty adult chronically infected woodchucks were stratified by age, sex, body weight, serum viral load, and serum GGT activity into four treatment groups of five animals each. Drug was administered orally at 100 mg/kg (in sterile water), chosen after an initial dose finding trial. […] The subunit vaccine consisted of 22-nm WHsAg particles, purified by zonal ultracentrifugation from serum of WHV7P1-infected WHV carriers (24), inactivated with formalin, and adsorbed onto alum. Prior to alum adsorption, vaccine was tested in naïve, WHV-susceptible animals and no residual virus was detected. Purified WHsAg was not pretreated with enzymes that remove preS sequences. […]
Serum WHV DNA was measured quantitatively by dot blot hybridization (assay sensitivity, ≧1.0×10^7 WHV genome equivalents per ml [WHVge/ml]) (25). Serum WHsAg, antibodies to WHV core antigen (anti-WHc), and WHV surface antigen (anti-WHs) were determined with WHV-specific enzyme immunoassays (26). […]
Woodchucks chronically infected with WHV experienced significant immunological responses to envelope proteins following immunization with WHsAg-containing vaccines, especially in the context of low viral and antigen loads following treatment with an effective antiviral agent, 1-(2-fluoro-5-methyl-beta-L-arabinofuranosyl)-uracil (L-FMAU) (29, 35). […] Animals were scored as positive if cells proliferated above the cut-off value of 2: 3.1. […]

[3] = serum drug level after single oral dose in woodchucks; assay type: in vivo; conditions: woodchuck, single oral dose of 100 mg/kg
Experimental: Twenty adult chronically infected woodchucks were stratified by age, sex, body weight, serum viral load, and serum GGT activity into four treatment groups of five animals each. Drug was administered orally at 100 mg/kg (in sterile water), chosen after an initial dose finding trial. […] The subunit vaccine consisted of 22-nm WHsAg particles, purified by zonal ultracentrifugation from serum of WHV7P1-infected WHV carriers (24), inactivated with formalin, and adsorbed onto alum. Prior to alum adsorption, vaccine was tested in naïve, WHV-susceptible animals and no residual virus was detected. Purified WHsAg was not pretreated with enzymes that remove preS sequences.

[4] = observation of woodchucks for drug-related toxicity; assay type: in vivo, woodchuck; conditions: 100 mg/kg orally, weighed bi-weekly, observed daily

Question: For `CCCC(=O)O[C@H]1CN2CC[C@H](O)[C@@H]2[C@@H](O)[C@H]1O` [BuCas, 6-O-butanoyl castanospermine], which “presentation of the D-peptide epitope by target cells” value ([1]; CTLs primed with D-peptide) is on record?
Answer: increased significantly

Question: What about the “presentation of the N-peptide epitope by target cells” value ([1]; CTLs primed with N-peptide) of the same compound?
Answer: reduced

Question: What about the “antigenemia, in words” value ([2]; chronic WHV carrier woodchucks, all times tested) of the same compound?
Answer: not altered significantly

Question: And the “WHsAg, Av(range)” value ([2]; week 0 (baseline))?
Answer: .38(.28-.43) optical density units

Question: What about the “WHsAg, Av(range)” value ([2]; week 10) of the same compound?
Answer: .42(33-.52) optical density units

Question: And the “Cmax, range” value [3]?
Answer: 5.0 to 12.1 µg/mL

Question: And the “average observed Cmax” value [3]?
Answer: 7.7 µg/mL

Question: And the drug-related toxicity [4]?
Answer: no evidence of drug-related toxicity was seen
